Patent US11919865B2, “Processes for preparing AG-10, its intermediates, and salts thereof” (EIDOS THERAPEUTICS, INC., priority 2017, dated 2024)
Values joined by “and” are separate entries in the source; they are usually repeats but may differ in a detail not shown here. Equal entries are not always repeated.

How the values were obtained:
[1] = Bioavailability of AG-10 in male and female dogs at different oral dosing levels; type: in vivo; settings: oral 5 mg/kg or 20 mg/kg, plasma 2-24 hours
Method: The mean plasma concentration of AG-10 was measured from 2-24 hours after oral dosing with 5 mg/kg or 20 mg/kg of AG-10. The calculated pharmacokinetic data is shown in FIG. 3B, FIG. 3D and FIG. 3F.

[2] = Bioavailability of AG-10, mean plasma concentration after intravenous and oral dosing; type: in vivo; settings: 1 mg/kg intravenously and 5 mg/kg orally, plasma 0-24 hours
Method: The mean plasma concentration of AG-10 was measured from 0-24 hours after dosing with 1 mg/kg of AG-10 intravenously and 5 mg/kg of AG-10 orally. The calculated pharmacokinetic data is shown in FIG. 2B, FIG. 2D, and FIG. 2F.

[3] = Oral dosing of AG-10 forms, plasma pharmacokinetics by LC-MS/MS; type: in vivo, Rat
Method: (§1) Rats or Dogs were orally dosed with the zwitterion, Na salt, or HCl salt for of AG-10. Plasma samples from each rat/dog, as applicable, were measured between 0 and up to 96 hours after dosing with the specified form of AG-10. After isolation from the animal, each sample (50 μL) was protein precipitated by adding 500 μL 0.1% formamide in acetonitrile to the sample. After addition for the formamide solution, the sample was vortexed and centrifuging at 1400 rpm for 15 min at 4° C. 100 μL of the supernatant was removed and diluted with 100 μL water. 5 μL of the diluted sample was injected for LC-MS/MS analysis.

[4] = Intravenous dosing of AG-10 forms, plasma pharmacokinetics by LC-MS/MS; settings: in vivo, dog, 1 mg/kg, the Cmax reported is an extrapolated C0
Method: as §1, with “Mice, Rats” for “Rats”, “were intravenously” for “were orally”, “each mouse/rat/dog,” for “each rat/dog,”, “and 24” for “and up to 96”, “diluted samples” for “diluted sample”

[5] = as above; type: in vivo
Method: as §1, with “Mice, Rats” for “Rats”, “were intravenously” for “were orally”, “each mouse/rat/dog,” for “each rat/dog,”, “and 24” for “and up to 96”, “diluted samples” for “diluted sample”

[6] = Oral dosing of AG-10 forms, plasma pharmacokinetics by LC-MS/MS; type: in vivo, Dog; settings: for Exposure (0-24 h) / Cmax: dog
Method: as §1

SMILES: Cc1n[nH]c(C)c1CCCOc1cc(C(=O)O)ccc1F [AG-10, 3-(3-(3,5-dimethyl-1H-pyrazol-4-yl)propoxy)-4-fluorobenzoic acid]
- Bioavailability [1]: high bioavailability
- Bioavailability ([2]; dogs): high bioavailability
- Bioavailability ([2]; mice): high bioavailability
- Bioavailability ([2]; rats): high bioavailability

SMILES: Cc1n[nH]c(C)c1CCCOc1cc(C(=O)O)ccc1F.Cl [HCl salt, 3-[3-(3,5-dimethyl-1H-pyrazol-4-yl)propoxy]-4-fluorobenzoic acid hydrochloride salt]
- Cmax ([3]; in vivo, rat, 200 mg/kg): 216000 ng/mL and 741 µM
- Exposure (0-24 h) ([3]; rat, 200 mg/kg): 395,503 ng · h/mL
- Cmax values as compared to the zwitterion and the Na salt ([3]; rats, Table 3 row 3 vs row 1): surprising and significant improvement in Cmax values
- Cmax [4]: 5960 ng/mL and 20.4 µM
- Cmax ([5]; in vivo, rat, 1 mg/kg, the Cmax reported is an extrapolated C0, read-out: Cmax (extrapolated C0)): 4280 ng/mL and 14.6 µM
- Exposure (0-24 h) ([6]; 20 mg/kg): 69,088 ng · h/mL
- Exposure (0-24 h) ([6]; 25 mg/kg): 128,374 ng · h/mL
- Exposure (0-24 h) ([6]; 60 mg/kg): 155,814 ng · h/mL
- Exposure (0-24 h) ([6]; 200 mg/kg): 1,020,640 ng · h/mL
- Cmax values as compared to the zwitterion ([6]; dogs, Table 3 row 6 vs row 4): surprising and significant improvement in Cmax values
- Cmax ([6]; in vivo, 20 mg/kg): 16100 ng/mL and 55.1 µM
- Cmax ([6]; in vivo, 25 mg/kg): 25100 ng/mL and 85.8 µM
- Cmax ([6]; in vivo, 60 mg/kg): 41800 ng/mL and 143 µM
- Cmax ([6]; in vivo, 200 mg/kg): 154000 ng/mL and 528 µM

SMILES: Cc1n[nH]c(C)c1CCCOc1cc(C(=O)O)ccc1F [Zwitterion, 3-(3-(3,5-dimethyl-1H-pyrazol-4-yl)propoxy)-4-fluorobenzoic acid]
- Cmax ([3]; plasma, rat, 200 mg/kg): 26400 ng/mL and 90.3 µM
- Cmax ([5]; mouse, 3 mg/kg): 4480 ng/mL and 15.4 µM
- Cmax ([5]; plasma, rat, 3.43 mg/kg, read-out: Cmax): 3090 ng/mL and 10.6 µM
- Exposure (0-24 h) ([6]; 25 mg/kg): 89,786 ng · h/mL
- Cmax ([6]; plasma, 25 mg/kg): 17500 ng/mL and 60 µM
